Laboratory results reported in patent publication US20240083857A1, “2-Methyl-Quinazolines” (Bayer Pharma Aktiengesellschaft, priority 2017, published 2024).
Structures can show the parent of a compound that is named as a salt.

What was measured:
[1] = biological target: K-Ras^G12C : hSOS1 interaction (Homo sapiens, UniProt Q07889); experiment: Biochemical assay 1: K-Ras^G12C interaction assay with hSOS1 (HTRF); type: binding; settings: read-out: Assay 1 (KRAS-SOS Interaction) activity expressed as IC50
[2] = biological target: human SOS1 (loading of human K-Ras^G12C-GDP with fluorescent GTP-analog) (Homo sapiens, UniProt Q07889); experiment: Biochemical assay 3: K-Ras^G12C activation assay by hSOS1 (HTRF); settings: no GTP; read-out: Assay 3 (KRAS-Activation by SOS no GTP) activity expressed as IC50

| Structure (SMILES) | IC50 [1] | IC50 [2] |
| --- | --- | --- |
| COc1cc2nc(C)nc(NC(C)c3ccc(-c4ccccc4CNCC(F)(F)F)s3)c2cc1OC (centres unmarked) [Example 300, 6,7-di methoxy-2-methyl-N-{1-[5-(2-{[(2,2,2-trifluoroethyl)amino]methyl}phenyl)thiophen-2-yl]ethyl}quinazolin-4-amine] | 3150 nM | 5080 nM |
| COc1cc2nc(C)nc(NC(C)c3ccc(-c4ccccc4CNc4ccccn4)s3)c2cc1OC (centres unmarked) [Example 301, 6,7-di methoxy-2-methyl-N-[1-(5-{2-[(pyridin-2-ylamino)methyl]phenyl}thiophen-2-yl)ethyl]quinazolin-4-amine] | 799 nM | 1930 nM |
| COc1cc2nc(C)nc(NC(C)c3ccc(-c4ccccc4CNc4cc[nH]n4)s3)c2cc1OC (centres unmarked) [Example 302, 6,7-dimethoxy-2-methyl-N-[1-(5-{2-[(1H-pyrazol-3-ylamino)methyl]phenyl}thiophen-2-yl)ethyl]quinazolin-4-amine] | 787 nM | 1540 nM |
| COc1cc2nc(C)nc(NC(C)c3ccc(-c4ccccc4CNCC(=O)N4CCc5ccccc5C4)s3)c2cc1OC (centres unmarked) [Example 303, 1-(3,4-dihydroisoquinolin-2(1H)-yl)-2-{[2-(5-{1-[(6,7-dimethoxy-2-methylquinazolin-4-yl)amino]ethyl}thiophen-2-yl)benzyl]amino}ethanone] | 724 nM | 880 nM |
| COc1cc2nc(C)nc(NC(C)c3ccc(-c4ccc(F)cc4CNCc4nccn4C)s3)c2cc1OC (centres unmarked) [Example 304, N-[1-{5-[4-fluoro-2-({[(1-methyl-1H-imidazol-2-yl)methyl]amino}methyl)phenyl]thiophen-2-yl}ethyl]-6,7-dimethoxy-2-methylquinazolin-4-amine] | 417 nM | 399 nM |
| COc1cc2nc(C)nc(NC(C)c3ccc(-c4ccccc4CN4CCNCC4)s3)c2cc1OC (centres unmarked) [Example 305, 6,7-dimethoxy-2-methyl-N-[1-{5-[2-(piperazin-1-ylmethyl)phenyl]thiophen-2-yl}ethyl]quinazolin-4-amine hydrochloride] | 61.6 nM | 58.4 nM |
| COc1cc2nc(C)nc(NC(C)c3ccc(-c4ccc(F)cc4CNC(C)=O)s3)c2cc1OC (centres unmarked) [Example 307, N-[2-(5-{1-[(6,7-dimethoxy-2-methylquinazolin-4-yl)amino]ethyl}thiophen-2-yl)-5-fluorobenzyl]acetamide] | 589 nM | 780 nM |
| COc1cc2nc(C)nc(NC(C)c3ccc(-c4ccccc4CN4CCN(C)CC4)s3)c2cc1OC (centres unmarked) [Example 308, 6,7-dimethoxy-2-methyl-N-[1-(5-{2-[(4-methylpiperazin-1-yl)methyl]phenyl}thiophen-2-yl)ethyl]quinazolin-4-amine] | 260 nM | 220 nM |
| COc1cc2nc(C)nc(NC(C)c3ccc(-c4ccccc4CN[C@H]4CCN(C)C4=O)s3)c2cc1OC (stereo partly drawn) [Example 309, (3S)-{[2-(5-{1-[(6,7-dimethoxy-2-methylquinazolin-4-yl)amino]ethyl}thiophen-2-yl)benzyl]amino}-1-methylpyrrolidin-2-one] | 1320 nM | 880 nM |
| COc1cc2nc(C)nc(NC(C)c3ccc(-c4ccc(F)cc4CNC(=O)c4cc[nH]n4)s3)c2cc1OC (centres unmarked) [Example 310, N-[2-(5-{1-[(6,7-dimethoxy-2-methylquinazolin-4-yl)amino]ethyl}thiophen-2-yl)-5-fluorobenzyl]-1H-pyrazole-3-carboxamide] | 5820 nM | 5760 nM |
| COc1cc2nc(C)nc(NC(C)c3ccc(-c4ccccc4CN4CCOCC4)s3)c2cc1OC (centres unmarked) [Example 311, 6,7-dimethoxy-2-methyl-N-[1-{5-[2-(morpholin-4-ylmethyl)phenyl]thiophen-2-yl}ethyl]quinazolin-4-amine] | 763 nM | 629 nM |
| COc1cc2nc(C)nc(NC(C)c3ccc(-c4ccccc4CN4CC(O)C4)s3)c2cc1OC (centres unmarked) [Example 312, 1-[2-(5-{1-[(6,7-dimethoxy-2-methylquinazolin-4-yl)amino]ethyl}thiophen-2-yl)benzyl]azetidin-3-ol] | 68.2 nM | 73.2 nM |
| COc1cc2nc(C)nc(NC(C)c3ccc(-c4ccccc4CN4CC5(CNC(=O)N5)C4)s3)c2cc1OC (centres unmarked) [Example 313, 2-[2-(5-{1-[(6,7-dimethoxy-2-methylquinazolin-4-yl)amino]ethyl}thiophen-2-yl)benzyl]-2,5,7-triazaspiro[3.4]octan-6-one] | 167 nM | 150 nM |
| COc1cc2nc(C)nc(NC(C)c3ccc(-c4ccc(F)cc4CNC(=O)[C@@H]4CCCN4)s3)c2cc1OC (stereo partly drawn) [Example 314, N-[2-(5-{1-[(6,7-dimethoxy-2-methylquinazolin-4-yl)amino]ethyl}thiophen-2-yl)-5-fluorobenzyl]-L-prolinamide] | 104 nM | 90.1 nM |
| COc1cc2nc(C)nc(NC(C)c3ccc(-c4ccccc4CNCC(F)F)s3)c2cc1OC (centres unmarked) [Example 315, N-{1-[5-(2-{[(2,2-difluoroethyl)amino]methyl}phenyl)thiophen-2-yl]ethyl}-6,7-dimethoxy-2-methylquinazolin-4-amine] | 777 nM | 1280 nM |
| COc1cc2nc(C)nc(NC(C)c3ccc(-c4ccccc4CN4CCC4)s3)c2cc1OC (centres unmarked) [Example 317, N-[1-{5-[2-(azetidin-1-ylmethyl)phenyl]thiophen-2-yl}ethyl]-6,7-dimethoxy-2-methylquinazolin-4-amine] | 76 nM | 88.4 nM |

| Structure (SMILES) | IC50 [1] | IC50 [2] |
| --- | --- | --- |
| COc1cc2nc(C)nc(NC(C)c3ccc(-c4ccccc4CN4CC[C@H]4CO)s3)c2cc1OC (stereo partly drawn) [Example 318, {1-[(2S)-(5-{1-[(6,7-dimethoxy-2-methylquinazolin-4-yl)amino]ethyl}thiophen-2-yl)benzyl]azetidin-2-yl}methanol] | 171 nM | 221 nM |
| COc1cc2nc(C)nc(NC(C)c3ccc(-c4ccccc4CN4CC(N(C)C)C4)s3)c2cc1OC (centres unmarked) [Example 319, N-{1-[5-(2-{[3-(dimethylamino)azetidin-1-yl]methyl}phenyl)thiophen-2-yl]ethyl}-6,7-dimethoxy-2-methylquinazolin-4-amine] | 164 nM | 127 nM |
| COc1cc2nc(C)nc(NC(C)c3ccc(-c4ccccc4CN4CC(F)(F)C4)s3)c2cc1OC (centres unmarked) [Example 320, N-[1-(5-{2-[(3,3-difluoroazetidin-1-yl)methyl]phenyl}thiophen-2-yl)ethyl]-6,7-dimethoxy-2-methylquinazolin-4-amine] | 2260 nM | 3490 nM |
| COc1cc2nc(C)nc(NC(C)c3ccc(-c4ccccc4CN(C)CC(F)(F)F)s3)c2cc1OC (centres unmarked) [Example 321, 6,7-di methoxy-2-methyl-N-{1-[5-(2-{[methyl(2,2,2-trifluoroethyl)amino]methyl}phenyl)thiophen-2-yl]ethyl}quinazolin-4-amine] | 14800 nM | 12800 nM |
| COc1cc2nc(C)nc(NC(C)c3ccc(-c4ccccc4CN4CC(F)C4)s3)c2cc1OC (centres unmarked) [Example 322, N-[1-(5-{2-[(3-fluoroazetidin-1-yl)methyl]phenyl}thiophen-2-yl)ethyl]-6,7-dimethoxy-2-methylquinazolin-4-amine] | 408 nM | 268 nM |
| COc1cc2nc(C)nc(NC(C)c3ccc(-c4ccc(Cl)cc4CN(C)C)s3)c2cc1OC (centres unmarked) [Example 323, N-[1-(5-{4-chloro-2-[(dimethylamino)methyl]phenyl}thiophen-2-yl)ethyl]-6,7-dimethoxy-2-methylquinazolin-4-amine] | 39.5 nM | 66.4 nM |
| COc1cc2nc(C)nc(NC(C)c3ccc(-c4ccccc4C(C)=O)s3)c2cc1OC (centres unmarked) [Example 324, 1-[2-(5-{1-[(6,7-dimethoxy-2-methylquinazolin-4-yl)amino]ethyl}thiophen-2-yl)phenyl]ethanone] | 1290 nM | 6840 nM |
| COc1cc2nc(C)nc(NC(C)c3ccc(-c4ccccc4OCCN4CCCC4)s3)c2cc1OC (centres unmarked) [Example 325, 6,7-di methoxy-2-methyl-N-[1-(5-{2-[2-(pyrrolidin-1-yl)ethoxy]phenyl}thiophen-2-yl)ethyl]quinazolin-4-amine] | 228 nM | 438 nM |
| COc1cc2nc(C)nc(NC(C)c3cccc4sc(C)cc34)c2cc1OC (centres unmarked) [Example 330, 6,7-dimethoxy-2-methyl-N-[1-(2-methyl-1-benzothiophen-4-yl)ethyl]quinazolin-4-amine] | 227 nM | 547 nM |
| COc1cc2nc(C)nc(NC(C)c3ccnc4sccc34)c2cc1OC (centres unmarked) [Example 331, 6,7-dimethoxy-2-methyl-N-[1-(thieno[2,3-b]pyridin-4-yl)ethyl]quinazolin-4-amine] | 919 nM | 3170 nM |
| COc1cc2nc(C)nc(NC(C)c3cncc4sccc34)c2cc1OC (centres unmarked) [Example 332, 6,7-dimethoxy-2-methyl-N-[1-(thieno[2,3-c]pyridin-4-yl)ethyl]quinazolin-4-amine] | 2250 nM | 11400 nM |
| COc1cc2nc(C)nc(NC(C)c3nccc4sccc34)c2cc1OC (centres unmarked) [Example 333, 6,7-dimethoxy-2-methyl-N-[1-(thieno[3,2-c]pyridin-4-yl)ethyl]quinazolin-4-amine] | 13000 nM | 14800 nM |
| COc1cc2nc(C)nc(N[C@H](C)c3cccc(-c4c(C)n[nH]c4C)c3)c2cc1OC [Example 334, N-{(1R)-1-[3-(3,5-dimethyl-1H-pyrazol-4-yl)phenyl]ethyl}-6,7-dimethoxy-2-methylquinazolin-4-amine] | 362 nM | 1410 nM |
| COc1cc2nc(C)nc(N[C@H](C)c3cccc(-c4cn[nH]c4C)c3)c2cc1OC [Example 335, 6,7-dimethoxy-2-methyl-N-{(1R)-1-[3-(5-methyl-1H-pyrazol-4-yl)phenyl]ethyl}quinazolin-4-amine] | 145 nM | 564 nM |
| COc1cc2nc(C)nc(N[C@H](C)c3cccc(-c4c(C)noc4C)c3)c2cc1OC [Example 336, N-{(1R)-1-[3-(3,5-dimethyl-1,2-oxazol-4-yl)phenyl]ethyl}-6,7-dimethoxy-2-methyl-quinazolin-4-amine] | 687 nM | 1990 nM |
